Reference: the supplement of paper PMC10307832

How the values were obtained:
Experiment in all cases: relative viability (nuclei count vs DMSO), 5 days (fraction); higher = more cells survive
Ibrutinib + Dasatinib = compound: C=CC(=O)N1CCC[C@@H](n2nc(-c3ccc(Oc4ccccc4)cc3)c3c(N)ncnc32)C1 [Ibrutinib] + Cc1nc(Nc2ncc(C(=O)Nc3c(C)cccc3Cl)s2)cc(N2CCN(CCO)CC2)n1 [Dasatinib] (partner 0.075 µM)
Outline: (§1)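 Relative viability is defined as nuclei in treated wells over nuclei in vehicle wells. Duplicate plates were run and medians reported. Lung cancer cell lines in 1536-well plates were dosed by pin tool one day after seeding, with one drug or with a fixed anchor-drug dose plus five library-drug doses (not always all listed) in √10 steps, and nuclei were counted after 5 days.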

BMX-IN-1 + Dasatinib = compound: C=CC(=O)Nc1cc(-n2c(=O)ccc3cnc4ccc(-c5ccc(NS(C)(=O)=O)cc5)cc4c32)ccc1C [BMX-IN-1] + Cc1nc(Nc2ncc(C(=O)Nc3c(C)cccc3Cl)s2)cc(N2CCN(CCO)CC2)n1 [Dasatinib] (partner 0.075 µM)
Outline: as §1

PAC-1 + Lapatinib = compound: C=CCc1cccc(/C=N/NC(=O)CN2CCN(Cc3ccccc3)CC2)c1O [PAC-1] + CS(=O)(=O)CCNCc1ccc(-c2ccc3ncnc(Nc4ccc(OCc5cccc(F)c5)c(Cl)c4)c3c2)o1 [Lapatinib] (partner 2 µM)
Outline: as §1

PAC-1 + Phenformin = compound: C=CCc1cccc(/C=N/NC(=O)CN2CCN(Cc3ccccc3)CC2)c1O [PAC-1] + N=C(N)NC(=N)NCCc1ccccc1 [Phenformin] (partner 250 µM)
Outline: as §1

Cell Line	relative viability (Ibrutinib + Dasatinib; first compound 0.005 µM)	relative viability (Ibrutinib + Dasatinib; first compound 0.01581 µM)	relative viability (Ibrutinib + Dasatinib; first compound 0.05 µM)	relative viability (Ibrutinib + Dasatinib; first compound 0.1581 µM)	relative viability (Ibrutinib + Dasatinib; first compound 0.5 µM)	relative viability (BMX-IN-1 + Dasatinib; first compound 0.02 µM)	relative viability (BMX-IN-1 + Dasatinib; first compound 0.2 µM)	relative viability (BMX-IN-1 + Dasatinib; first compound 0.6325 µM)	relative viability (BMX-IN-1 + Dasatinib; first compound 2 µM)	relative viability (PAC-1 + Lapatinib; first compound 0.02 µM)	relative viability (PAC-1 + Lapatinib; first compound 0.06325 µM)	relative viability (PAC-1 + Lapatinib; first compound 0.2 µM)	relative viability (PAC-1 + Lapatinib; first compound 2 µM)	relative viability (PAC-1 + Phenformin; first compound 0.02 µM)	relative viability (PAC-1 + Phenformin; first compound 0.06325 µM)	relative viability (PAC-1 + Phenformin; first compound 0.2 µM)	relative viability (PAC-1 + Phenformin; first compound 2 µM)
HOP-62	0.664	0.517	0.708	0.563	0.648	0.587	0.786	0.768	0.729	0.876	0.987	1.03	1.22	0.692	0.541	0.585	0.647
IA-LM										0.937	0.922	0.715	1.08				
LC-2-ad	0.315	0.608	0.637	0.49	0.565	0.658	0.737	0.74	0.642	0.983	0.957	0.984	0.865	0.609	0.654	0.573	0.512
LCLC-97TM1	0.951	0.804	0.973	0.703	0.782	0.927	0.893	1	0.943		0.796	0.796	0.954	0.507	0.456	0.424	0.427
LCLC-103H	0.496	0.432	0.454	0.489	0.318	0.519	0.477	0.522	0.535					0.347	0.322	0.365	0.341
LK-2		0.273	0.278	0.224	0.293	0.338	0.325	0.304	0.282	0.77	1.04	0.884	0.932	0.258	0.479	0.381	0.559
LOU-NH91	0.473	0.474	0.485	0.522	0.38	0.553		0.657	0.559	0.723	0.82	0.749	0.782	0.713	0.695	0.668	0.798
LU99A	0.514	0.605	0.465	0.556	0.483	0.646	0.56	0.793	0.555	1.11	1.05	0.918	0.977	0.824	0.761	0.908	0.874
LXF-289	0.26	0.14	0.275	0.325	0.176	0.197	0.204	0.247	0.266	0.901	0.903	0.897	0.927	0.52	0.53	0.501	0.511
NCI-H23	0.705	0.762	0.902	0.662	0.901	0.839	0.994	0.855	0.722	1.13	1.17	0.868	1.34	0.788	0.814	0.713	0.815
NCI-H322M	0.218	0.236	0.242	0.241	0.238	0.261	0.251	0.262	0.256	0.526	0.581	0.668	0.576	0.716	0.819	0.776	0.762
NCI-H358	0.149		0.136	0.152	0.0966	0.166	0.145	0.176	0.135	0.473	0.525	0.477	0.388	0.305	0.314	0.269	0.374
NCI-H441	0.638	0.649	0.729	0.571	0.55	0.741	0.79	0.709	0.707					0.881	0.993	0.705	0.752
NCI-H460	0.548	0.42	0.491	0.286	0.603	0.621	0.682	0.679	0.494	1.01	1.01	0.916	0.942	0.503	0.528	0.483	0.575
NCI-H520	0.192		0.183	0.237	0.132	0.222	0.263	0.239	0.224	0.733	0.976	0.637	0.779	0.418	0.685	0.462	0.6
NCI-H522	0.744	0.584	0.731	0.773	0.723	0.894	1.02	0.89	0.821					0.78	0.662	0.693	0.631
NCI-H596		0.545	0.579	0.5	0.564	0.66	0.618	0.674	0.672	1.04	1.03	1.01	1.05	0.739	1.03	0.783	0.785
NCI-H647		0.164	0.167	0.206	0.174	0.197	0.24	0.277	0.174	0.851	1.05	0.866	0.934	0.609	0.504	0.431	0.571
NCI-H1299										0.981	0.967	0.975	0.949				
NCI-H1623	0.604	0.515	0.461	0.316	0.244	0.529	0.526	0.569	0.504					0.6	0.565	0.592	0.602
NCI-H1703										0.901	1.31	0.906	0.952				
NCI-H2342	0.314	0.315	0.294	0.279	0.276	0.31	0.326	0.307	0.327					0.552	0.474	0.579	0.611
SW 900			0.683	0.554	0.578	0.568	0.835	0.521	0.714					0.43	0.575	0.568	0.415
